Where a SMILES comes first, the peptide text is derived from it.
Experiments:
[1] = target: T1, Chymotrypsin, from human pancreas (Homo sapiens, UniProt P17538)
[2] = target: Trypsin, from human pancreas (Homo sapiens, UniProt P07477)
[3] = system: HELA cells (Acc57); assay: Cytotoxicity assay (MTT reduction), HELA cells; assay type: cell-based; details: Hela cells
Summary of the method: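 HeLa cells were grown for 24 h, then exposed to peptides at 12.5, 25 and 50 μM in triplicate for 48 h at 37 °C. MTT reduction was read at 595 nm and growth % calculated relative to time-zero wells. LC50 interpolated by linear trend at −50% growth, GI50 at 50%.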

[4] = target: T2, Elastase from human neutrophils (Homo sapiens, UniProt P08246); assay: Enzymatic assay, elastase; details: Elastase IC50
T2 sequence (P08246 30-267): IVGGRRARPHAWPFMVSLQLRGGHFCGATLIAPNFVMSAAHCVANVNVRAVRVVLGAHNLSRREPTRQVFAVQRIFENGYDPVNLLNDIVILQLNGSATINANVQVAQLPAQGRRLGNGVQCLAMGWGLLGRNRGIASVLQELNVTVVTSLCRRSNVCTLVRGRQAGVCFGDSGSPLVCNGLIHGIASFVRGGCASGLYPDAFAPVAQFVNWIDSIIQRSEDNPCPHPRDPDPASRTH

[5] = target: Urokinase from human urine (Homo sapiens, UniProt P00749)
[6] = target: T3, CathepsinG, from human neutrophils (Homo sapiens, UniProt P08311); assay: Enzymatic assay, cathepsin G; details: Cathepsin G IC50
T3 sequence (P08311 21-244): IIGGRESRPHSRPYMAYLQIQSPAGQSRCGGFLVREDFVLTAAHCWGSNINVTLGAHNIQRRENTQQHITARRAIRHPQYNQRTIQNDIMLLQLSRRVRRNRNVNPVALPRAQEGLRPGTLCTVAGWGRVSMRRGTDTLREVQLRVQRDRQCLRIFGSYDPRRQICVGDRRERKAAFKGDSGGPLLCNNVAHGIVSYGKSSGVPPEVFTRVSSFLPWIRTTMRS

[7] = system: Tryptase, from human lung; assay: Enzymatic assay, tryptase; details: at 100 μM
[8] = target: Thrombin, from Human Plasma (Homo sapiens, UniProt P00734)
[9] = target: T4, Chymase, from human skin (Homo sapiens, UniProt P23946)
T4 sequence (P23946 22-247): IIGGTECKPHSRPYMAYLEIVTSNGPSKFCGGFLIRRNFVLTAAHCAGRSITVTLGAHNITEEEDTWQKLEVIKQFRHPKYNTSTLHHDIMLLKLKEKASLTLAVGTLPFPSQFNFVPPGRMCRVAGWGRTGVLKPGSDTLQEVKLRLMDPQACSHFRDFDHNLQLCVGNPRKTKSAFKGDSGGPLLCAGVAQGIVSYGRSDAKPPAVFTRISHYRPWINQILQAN

[10] = target: Coagulation Factor Xa, from uman plasma (Homo sapiens, UniProt P00742)
Sequence of Coagulation Factor Xa, from uman plasma (P00742 235-488 limits assumed): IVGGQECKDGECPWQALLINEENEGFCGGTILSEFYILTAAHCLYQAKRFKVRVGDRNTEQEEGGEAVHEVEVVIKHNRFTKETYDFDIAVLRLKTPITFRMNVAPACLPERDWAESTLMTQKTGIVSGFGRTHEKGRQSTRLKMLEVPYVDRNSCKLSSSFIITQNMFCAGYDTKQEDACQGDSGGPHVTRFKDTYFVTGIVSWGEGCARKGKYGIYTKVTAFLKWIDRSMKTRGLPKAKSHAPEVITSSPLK
Sequence of Coagulation Factor Xa, from uman plasma (P00742 41-179 limits assumed): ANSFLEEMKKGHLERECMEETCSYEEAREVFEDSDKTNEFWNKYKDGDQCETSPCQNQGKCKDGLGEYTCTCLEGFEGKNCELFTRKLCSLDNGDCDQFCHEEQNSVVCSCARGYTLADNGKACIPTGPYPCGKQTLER

[11] = assay type: in vitro ADME; details: 10 µM
Protocol: 405 μl of plasma/albumin solution were placed in a polypropylene (PP) tube and spiked with 45 μl of compound from a […] solution B, derived from 135 μl of PBS and 15 μl of 1 mM peptide in PBS, pH 7.4. 150 μl aliquots were transferred into individual wells of the 10 kDa filter plate (Millipore MAPPB 1010 Biomax membrane). For “0 minutes controls”: 270 μl of PBS were placed in a PP tube and 30 μl of stock solution B was added and vortexed. 150 μl of control solution were placed into one well of the filter plate and served as “filtered control”.
Further 150 μl of control solution were placed directly into a receiver well (reserved for filtrate) and served as “not-filtered control”. The entire plate including evaporation lid was incubated for 60 min at 37° C. Plasma samples (rat plasma: Harlan Sera lab UK, human plasma: Blutspendezentrum Zürich) were centrifuged at least for 2 h at 4300 rpm (3500 g) and 15° C. in order to yield 100 filtrate. For “serum albumin”-samples (freshly prepared human albumin: Sigma A-4327, rat albumin: Sigma A-6272, all at 40 mg/ml concentration in PBS) approximately 1 hour of centrifugation was sufficient. The filtrates in the receiver PP plate were analysed by LC/MS as follower follows: Column: Jupiter C18 (Phenomenex), mobile phases: (A) 0.1% formic acid in water and (B) acetonitrile, gradient: 5%-100% (B) in 2 minutes, electrospray ionization, MRM detection (triple quadrupole). The peak areas were determined and triplicate values were averaged. The binding was expressed in percent of the (filtered and not-filtered time point 0 min) control 1 and 2 by: 100−(100×T60/T0). The average from these values was then calculated.

[12] = system: human red blood cells (hRBC); assay: Hemolysis
Protocol: The peptides were tested for their hemolytic activity against human red blood cells (hRBC). Fresh hRBC were washed three times with phosphate buffered saline (PBS) by centrifugation for 10 min at 2000×g. Peptides at a concentration of 100 μM were incubated with 20% v/v hRBC for 1 hour at 37° C. The final erythrocyte concentration was approximately 0.9×10^9 cells per ml. A value of 0% and, respectively, 100% cell lysis was determined by incubation of the hRBC in the presence of PBS alone and, respectively, 0.1% Triton X-100 in H2O. […] The 100% lysis value (OD540H20) gave an OD540 of approximately 1.3-1.8. Percent hemolysis was calculated as follows: (OD540peptide/OD540H20)×100%.

[13] = target: T3, CathepsinG, from human neutrophils
[14] = target: T1, Chymotrypsin, from human pancreas; assay: Enzymatic assay, chymotrypsin

T1 sequence (P17538 19-263): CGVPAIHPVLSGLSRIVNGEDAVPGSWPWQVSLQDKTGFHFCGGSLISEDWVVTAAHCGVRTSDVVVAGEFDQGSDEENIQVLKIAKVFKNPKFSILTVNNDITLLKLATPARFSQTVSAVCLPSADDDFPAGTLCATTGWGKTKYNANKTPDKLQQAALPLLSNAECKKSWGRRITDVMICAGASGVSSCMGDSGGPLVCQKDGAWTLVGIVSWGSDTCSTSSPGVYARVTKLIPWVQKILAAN

SMILES	Chymotrypsin at 100 μM % [1] [%]	Trypsin at 100 μM % [2] [%]	Cytotoxicity LC50/GI50 Hela cells [3] [µM]	IC50 [4] [µM]	Urokinase at 100 μM % [5] [%]	IC50 [6] [nM]	Tryptase at 100 μM % [7] [%]	Thrombin at 100 μM % [8] [%]	Chymase at 100 μM % [9] [%]	FXa at 100 μM % [10] [%]	Stability human Plasma t1/2 [11] [min]	Stability rat Plasma t1/2 [11] [min]	Hemolysis at 100 μM % [12] [%]	Cathepsin G at 100 μM % [13] [at 100%]	IC50 [14] [nM]
CC[C@H](C)[C@@H]1NC(=O)[C@@H]2CCCN2C(=O)[C@@H]2CCCN2C(=O)[C@H](CC(=O)O)NC(=O)[C@H](CO)NC(=O)[C@H](CCCCN)NC(=O)[C@H]([C@@H](C)O)NC(=O)[C@@H]2CSSC[C@H](NC1=O)C(=O)N[C@@H](CCCNC(=N)N)C(=O)N1CCC[C@@H]1C(=O)N1CCC[C@H]1C(=O)N[C@@H](C1CCCCC1)C(=O)N2 [Ex. 12] (HELM PEPTIDE1{[O=C([C@@H](N[*:1])C1CCCCC1)[*:2]].C.T.K.S.D.P.P.I.C.R.[dP].P}$PEPTIDE1,PEPTIDE1,2:R3-10:R3|PEPTIDE1,PEPTIDE1,1:R1-13:R2$$$V2.0)	28	97	59.3	37	12	90	59.3	11	12	5	–	–	–	–	–
CCCC[C@@H]1NC(=O)[C@H]([C@@H](C)O)NC(=O)[C@@H]2CSSC[C@H](NC(=O)[C@H]([C@@H](C)CC)NC(=O)[C@@H]3CCCN3C(=O)[C@@H]3CCCN3C(=O)[C@H](CC(=O)O)NC(=O)[C@H](CO)NC1=O)C(=O)N[C@@H](CCCNC(=N)N)C(=O)N1CCC[C@@H]1C(=O)N1CCC[C@H]1C(=O)N[C@@H]([C@@H](C)CC)C(=O)N2 [Ex. 22] (HELM PEPTIDE1{I.C.T.[Nle].S.D.P.P.I.C.R.[dP].P}$PEPTIDE1,PEPTIDE1,2:R3-10:R3|PEPTIDE1,PEPTIDE1,1:R1-13:R2$$$V2.0)	0	84.	8	> 100	5.7	55	3.8	–	98.8	–	300	300	0	–	–
CCCC[C@@H]1NC(=O)[C@@H]2CCCN2C(=O)[C@H]2CCCN2C(=O)[C@H](Cc2ccc(O)cc2)NC(=O)[C@H]([C@@H](C)O)NC(=O)[C@H](CCC(N)=O)NC(=O)[C@@H]2CCCN2C(=O)[C@@H]2CCCN2C(=O)[C@H]([C@@H](C)CC)NC(=O)[C@H](CO)NC(=O)[C@H](C)NC(=O)[C@H]([C@@H](C)O)NC(=O)[C@H](CCC(N)=O)NC1=O [Ex. 109] (HELM PEPTIDE1{[Nle].Q.T.A.S.I.P.P.Q.T.Y.[dP].P}$PEPTIDE1,PEPTIDE1,1:R1-13:R2$$$V2.0)	–	0	–	0.033	–	–	–	0	0.1	5.6	–	–	–	54.1	13.8
